{
  "source": "patent US6645949B1",
  "about": "“Toxicity of boron compounds to certain arthropods” (University of Florida, priority 2000, dated 2003)",
  "tested_on": "Diamond Back Moth (DBM; Plutella xylostella)",
  "test": "Control of diamond back moth and inhibition of egg deposition, cage test with sugar pads",
  "assay_type": "in vivo",
  "settings": "4% in 10% sucrose",
  "description": "On day one, six cages (24″ cube) were set up with five virgin DBM females and five virgin DBM males, one cabbage seedling, and one sugar pad (10% sucrose) in each cage. The sugar solution in three cages also contained 4% sodium tetraborate (4 g+96 ml, w:v water). The virgin adult DBM were obtained by isolating colony pupae individually in vials two days prior. The adults emerged one day prior to day one and on day one. They were provided a 10% sugar solution with or without sodium tetraborate, as soon as they emerged, by placing the vials with cloth bottoms on cotton pads.\nThe cages were placed in environmental rooms where the temperature was 25-26° C. and the day length was 14 hours.\nSugar pads were a single layer of rolled cotton approximately 8 cm square. Each pad was soaked in the appropriate solution, placed in the bottom of a petri dish (95×15 mm), and the excess water was pressed out. Each pad held about 30 ml of solution.\nThe cabbage seedlings were in Descn. No. 12 plastic pots. The surface of the soil was covered with a thin layer of Plaster of Paris.\nOn each of days two, three, four, five, and six, the sugar pads and plants were changed (once) between 1:00 p.m. and 5:00 p.m.",
  "key": {"[1]": {"settings": "Day 7, cages 1-3, one cage per cell"}, "[2]": {"settings": "Total of Days 2-7, cages 1-3, one cage per cell"}, "[3]": {"settings": "Total of Days 2-7 and of 3 cages"}, "[4]": {"settings": "relative to sugar control, Days 2-7"}},
  "note": "Where “and” joins values, the source holds several entries; their conditions need not be identical. Equal entries are not always repeated.",
  "data": [
    {"smiles": "O=BOB(O)OB(O)OB=O", "note": "[Sodium tetraborate, sodium tetraborate]", "values": [
      {"measurement": "Percent Hatch, Average", "setting": "Average of the 3 cages, Days 2-7", "value": 66.4, "unit": "%"},
      {"measurement": "Number of Eggs, Average", "setting": "Average per cage over Days 2-7", "value": 354.7},
      {"measurement": "Number of Larvae, Average", "setting": "Average per cage over Days 2-7", "value": 235.3},
      {"measurement": "Number of Dead Females", "setting": "Day 2, Total of 3 cages", "value": 0},
      {"measurement": "Number of Dead Males", "setting": "Day 2, Total of 3 cages", "value": 0},
      {"measurement": "Number of Eggs", "setting": "Day 2, Total of 3 cages", "value": 202},
      {"measurement": "Number of Larvae", "setting": "Day 2, Total of 3 cages", "value": 99},
      {"measurement": "Percent Hatch", "setting": "Day 2, Total", "value": 44.8, "unit": "%"},
      {"measurement": "Number of Dead Females", "setting": "Day 2, cages 1-3, five females per cage", "value": 0},
      {"measurement": "Number of Dead Males", "setting": "Day 2, cages 1-3, five males per cage", "value": 0},
      {"measurement": "Percent Hatch", "setting": "Day 2, cages 1-3, one cage per cell", "value": "40.9% and 58.2% and 35.4%"},
      {"measurement": "Number of Dead Females", "setting": "Day 3, Total of 3 cages", "value": 1},
      {"measurement": "Number of Dead Males", "setting": "Day 3, Total of 3 cages", "value": 0},
      {"measurement": "Number of Eggs", "setting": "Day 3, Total of 3 cages", "value": 499},
      {"measurement": "Number of Larvae", "setting": "Day 3, Total of 3 cages", "value": 388},
      {"measurement": "Percent Hatch", "setting": "Day 3, Total", "value": 79.9, "unit": "%"},
      {"measurement": "Number of Dead Males", "setting": "Day 3, cages 1-3, five males per cage", "value": 0},
      {"measurement": "Percent Hatch", "setting": "Day 3, cages 1-3, one cage per cell", "value": "73.7% and 74.2% and 91.7%"},
      {"measurement": "Number of Dead Females", "setting": "Day 4, Total of 3 cages", "value": 1},
      {"measurement": "Number of Dead Males", "setting": "Day 4, Total of 3 cages", "value": 0},
      {"measurement": "Number of Eggs", "setting": "Day 4, Total of 3 cages", "value": 185},
      {"measurement": "Number of Larvae", "setting": "Day 4, Total of 3 cages", "value": 113},
      {"measurement": "Percent Hatch", "setting": "Day 4, Total", "value": 57.0, "unit": "%"},
      {"measurement": "Number of Dead Males", "setting": "Day 4, cages 1-3, five males per cage", "value": 0},
      {"measurement": "Percent Hatch", "setting": "Day 4, cages 1-3, one cage per cell", "value": "47.5% and 52.2% and 71.3%"},
      {"measurement": "Number of Dead Females", "setting": "Day 5, Total of 3 cages", "value": 1},
      {"measurement": "Number of Dead Males", "setting": "Day 5, Total of 3 cages", "value": 2},
      {"measurement": "Number of Eggs", "setting": "Day 5, Total of 3 cages", "value": 119},
      {"measurement": "Number of Larvae", "setting": "Day 5, Total of 3 cages", "value": 70},
      {"measurement": "Percent Hatch", "setting": "Day 5, Total", "value": 54.3, "unit": "%"},
      {"measurement": "Number of Dead Females", "setting": "Day 6, Total of 3 cages", "value": 3},
      {"measurement": "Number of Dead Males", "setting": "Day 6, Total of 3 cages", "value": 4},
      {"measurement": "Number of Eggs", "setting": "Day 6, Total of 3 cages", "value": 58},
      {"measurement": "Number of Larvae", "setting": "Day 6, Total of 3 cages", "value": 36},
      {"measurement": "Percent Hatch", "setting": "Day 6, Total", "value": 63.3, "unit": "%"},
      {"measurement": "Number of Dead Females", "setting": "Day 6, cages 1-3, five females per cage", "value": 1},
      {"measurement": "Number of Dead Females", "setting": "Day 7, Total of 3 cages", "value": 6},
      {"measurement": "Number of Dead Males", "setting": "Day 7, Total of 3 cages", "value": 4},
      {"measurement": "Number of Eggs", "setting": "Day 7, Total of 3 cages", "value": 1},
      {"measurement": "Number of Larvae", "setting": "Day 7, Total of 3 cages", "value": 0},
      {"measurement": "Number of Live Females", "setting": "Day 7, Total of 3 cages", "value": 2},
      {"measurement": "Number of Live Males", "setting": "Day 7, Total of 3 cages", "value": 2},
      {"measurement": "Percent Hatch", "setting": "Day 7, Total", "value": 0.0, "unit": "%"},
      {"measurement": "Number of Dead Males", "setting": "Day 7, cages 1-3, five males per cage", "value": "2 and 1"},
      {"measurement": "Number of Larvae", "setting": "[1]", "value": 0},
      {"measurement": "Percent Hatch", "setting": "[1]", "value": 0.0, "unit": "%"},
      {"measurement": "Percent Hatch, Total", "setting": "Days 2-7 together, cages 1-3, one cage per cell", "value": "60.9% and 65.5% and 72.9%"},
      {"measurement": "Number of Eggs, Total", "setting": "[2]", "value": "419 and 261 and 384"},
      {"measurement": "Number of Larvae, Total", "setting": "[2]", "value": "255 and 171 and 280"},
      {"measurement": "Number of Eggs, Total", "setting": "[3]", "value": 1064},
      {"measurement": "Number of Larvae, Total", "setting": "[3]", "value": 706},
      {"measurement": "Number of Eggs, % of sugar", "setting": "[4]", "value": 57.1, "unit": "%"},
      {"measurement": "Number of Larvae, % of sugar", "setting": "[4]", "value": 64.2, "unit": "%"}
    ]}
  ]
}
